Test results as given in patent US20190218226A1, “PRODRUGS OF ANTICANCER AGENTS INDOTECAN AND INDIMITECAN” (Purdue Research Foundation, priority 2016, published 2019).

Legend:
UACC-62 = assay: NCI60 antiproliferative screen, melanoma UACC-62; assay type: cell-based, human; conditions: UACC-62, 48 h, sulforhodamine B; read-out: Cytotoxicity (GI50) melanoma UACC-62
Summary of the method: (§1)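 Cells were exposed to compounds at 100, 10, 1, 0.1 and 0.01 μM for 48 h, then stained with sulforhodamine B. Optical density relative to control was plotted as percentage growth versus log10 concentration, and GI50 was interpolated between the points bracketing 50% growth.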

OVCAR-3 = assay: NCI60 antiproliferative screen, ovarian OVCAR-3; assay type: cell-based, human; conditions: OVCAR-3, 48 h, sulforhodamine B; read-out: Cytotoxicity (GI50) Ovarian OVCAR-3
Summary of the method: as §1

HCT-116 = assay: NCI60 antiproliferative screen, colon HCT-116; assay type: cell-based, human; conditions: HCT-116, 48 h, sulforhodamine B; read-out: Cytotoxicity (GI50) Colon HCT-116
Summary of the method: as §1

SF-539 = assay: NCI60 antiproliferative screen, CNS SF-539; assay type: cell-based, human; conditions: SF-539, 48 h, sulforhodamine B; read-out: Cytotoxicity (GI50) CNS SF-539
Summary of the method: as §1

HOP-62 = assay: NCI60 antiproliferative screen, lung HOP-62; assay type: cell-based, human; conditions: HOP-62, 48 h, sulforhodamine B; read-out: Cytotoxicity (GI50) lung HOP-62
Summary of the method: as §1

DU-145 = assay: NCI60 antiproliferative screen, prostate DU-145; assay type: cell-based, human; conditions: DU-145, 48 h, sulforhodamine B; read-out: Cytotoxicity (GI50) prostate DU-145
Summary of the method: as §1

[1] = Stability of compound 17 in cell culture medium; assay type: physicochemical; conditions: 10 μM, cell-free RPMI 1640 medium, 37° C., after 99 hours
Procedure: In order to investigate the possibility that hydrolysis of the prodrugs takes place extracellularly rather than intracellularly, compound 17 was added to cell-free cell culture medium and the mixture was incubated at 37° C. Relatively slow conversion to the parent phenol 9 was observed, with 22% conversion after 99 hours.
Stability of Compound 17 in Cell Culture Medium.
RPMI 1640 medium was purchased from Sigma-Aldrich (St. Louis, Mo.). Compound 17 (10 μM) was incubated at 37° C. with RPMI 1640 medium. After 99 h, an aliquot was taken from the incubation mixture and filtered prior to analysis using LC-MS (Waters, Germany). The flow rate was 0.75 mL/min and the eluent was recorded with a DAD at 280 nm.

conversion to the parent phenol 9 [1]: 22%
SMILES: COC(=O)CCC(=O)Oc1cc2c(=O)n(CCCN3CCOCC3)c3c(c2cc1OC)C(=O)c1cc2c(cc1-3)OCO2 [Compound 17, 2-Methoxy-6-(3-morpholinopropyl)-5,12-dioxo-6,12-dihydro-5H-[1,3]dioxolo[4′,5′:5,6]indeno[1,2-c]isoquinolin-3-yl Methyl Succinate]
GI50 (UACC-62): 0.018 µM
GI50 (OVCAR-3): 0.037 µM
GI50 (HCT-116): 0.02 µM
GI50 (SF-539): < 0.01 µM
GI50 (HOP-62): 0.016 µM
GI50 (DU-145): 0.014 µM
